According to patent US20230129788A1, “GLP-1/GLP-2 DUAL AGONISTS” (Zealand Pharma A/S, priority 2020, published 2023):
Starred links: 1 amine or outer side, 2 acyl side, 3 side chain; linkers in the order of their positions; H or OH if unused. Non-standard residues stand in square brackets, D forms with d. Groups on a side chain read outwards from the residue. *: point of attachment. C18 diacid = O=C(O)CCCCCCCCCCCCCCCCC(=O)*; γGlu = O=C(O)[C@H](CCC(=O)[*:2])N[*:1]; Aib = CC(C)(N)C(=O)O

How the values were obtained:
[1] = test system: Total Parental Nutrition (TPN) Piglet Model; experiment: Small intestine mass (weight per centimeter) in total parenteral nutrition (TPN) piglet model; assay type: in vivo; details: piglets on TPN
Description: (§1) One-week-old piglets were placed in heated (25-30° C.) cages. Jugular and duodenal catheters were surgically implanted as described in paragraph 2 (method and material) in Jain 2015. Subsequently, preconditioned jackets and ambulatory pumps for TPN (total parenteral nutrition) delivery were fitted. Animals were started on their randomly assigned groups to receive enteral nutrition (EN; n=11), intravenous total parenteral nutrition plus vehicle (TPN; n=8) or TPN plus compound 18 (Cpd 18; n=13). Cpd 18 and vehicle were administered as daily subcutaneous injections at a dose of either 0.008 mg/kg (n=2), 0.033 mg/kg (n=2), 0.066 mg/kg (n=2) or 0.133 mg/kg (n=7).
(§2) Enteral animals (EN) received a swine milk replacement formula (formula LitterLife as described in Jain 2015, paragraph 2.6). All other animals received total parenteral nutrition (Clinimix E from Baxter as described in Jain 2015, paragraph 2.6).
Post-euthanasia (see Jain 2015, paragraph 2.7), the abdomen was opened, and the small intestine was removed. Small segments of the small bowel were sliced and weighed (see Jain 2015, paragraph 2.78). Tissue was then cut into smaller pieces, preserved for histology and snap-frozen in liquid nitrogen to be stored at −80° C. for analysis.

[2] = test system: Total Parental Nutrition (TPN) Piglet Model; experiment: Histology of small bowel, villous/crypt (V/C) ratio, in total parenteral nutrition (TPN) piglet model; assay type: in vivo, piglets
Description: as §1, §2
Segments of fresh tissue (2-3 cm) from the small intestine were fixed in 4% buffered formalin for 24 hours and then stored in 70% ethanol at room temperature for 24 hours. […] Using the small-bowel H&E slides, the mean villous height and crypt depth were quantified in vertically well-oriented villous-crypt columns with the slide reviewer blinded to the treatment to compute a villous/crypt (V/C) ratio for animals in each group.

## H-H[Aib]EGSFTSELATILDK([γGlu-C18 diacid])QAARDFIAWLIQHKITD-OH [Cpd 18]
[1]; daily subcutaneous injections 0.008, 0.033, 0.066 or 0.133 mg/kg, sacrifice on day 14, FIG. 1
  mass of the proximal intestine (weight per centimeter): preserved the mass in a dose-dependent fashion
[1]; daily subcutaneous injections 0.008, 0.033, 0.066 or 0.133 mg/kg, sacrifice on day 14, FIG. 2
  mass of the distal intestine (weight per centimeter): preserved the mass in a dose-dependent fashion
[1]; highest dose (0.133 mg/kg daily s.c.), sacrifice on day 14, FIG. 1
  weight of the proximal intestine at the highest dose compared to animals on EN: approximately the same as in the animals on EN
[1]; highest dose (0.133 mg/kg daily s.c.), sacrifice on day 14, FIG. 2
  weight of the distal intestine at the highest dose, greater than that in the animals on TPN: approximately 50%
[2]; piglet on TPN, 0.133 mg/kg for 14 days, FIG. 6 compared to FIG. 4
  histological section of the small bowel, villi and crypts: villi and crypts are comparable to the animal receiving enteral nutrition
[2]; piglets on TPN, 0.133 mg/kg daily s.c., sacrifice on day 14, FIG. 3
  V/C ratio of the small bowel: completely preserved the V/C ratio to the same ratio seen in the animals on EN
